Data reported in US10954193B2 (Vanderbilt University, priority 2013, dated 2021).

Biological target: recombinant Mcl-1 (residues 172-327) (Homo sapiens (Human), UniProt Q07820)
Assay: Bak peptide binding assay, fluorescence polarization anisotropy competition (FITC-Bak), Mcl-1;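 note: displacement of labeled Bak peptide read by fluorescence anisotropy, 10-point threefold dilutions from 20 µM top dose in 5% DMSO, 90 min incubation at room temperature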
Conditions: Table 3, binned ranges; FITC-Bak peptide 10 nM, Mcl-1 14 nM; read-out: Ki for inhibition of Mcl-1

Chain of recombinant Mcl-1 (residues 172-327) (Q07820 172-327): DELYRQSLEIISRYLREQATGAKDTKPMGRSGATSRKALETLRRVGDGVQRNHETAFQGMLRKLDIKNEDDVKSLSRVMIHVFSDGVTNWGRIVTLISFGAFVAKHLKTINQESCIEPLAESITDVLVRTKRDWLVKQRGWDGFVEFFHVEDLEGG

SMILES	Ki
Cc1cc(OCCCc2c(C)n(CC(=O)O)c3c(-c4ccnn4C)cccc23)cc(C)c1Cl [Example 64, 2-(3-(3-(4-chloro-3,5-dimethylphenoxy)propyl)-2-methyl-7-(1-methyl-1H-pyrazol-5-yl)-1H-indol-1-yl)acetic acid]	101 to 299 nM
Cc1cc(OCCCc2c(C)n(CC(=O)O)c3c(-c4c(C)noc4C)cccc23)cc(C)c1Cl [Example 66, 2-(3-(3-(4-chloro-3,5-dimethylphenoxy)propyl)-7-(3,5-dimethylisoxazol-4-yl)-2-methyl-1H-indol-1-yl)acetic acid]	101 to 299 nM
Cc1cnccc1-c1cccc2c(CCCOc3cc(C)c(Cl)c(C)c3)c(C)n(CC(=O)O)c12 [Example 67]	101 to 299 nM
Cc1cc(OCCCc2c(C)n(CC(=O)O)c3c(-c4cccn4C)cccc23)cc(C)c1Cl [Example 68, 2-(3-(3-(4-chloro-3,5-dimethylphenoxy)propyl)-2-methyl-7-(1-methyl-1H-pyrrol-2-yl)-1H-indol-1-yl)acetic acid]	101 to 299 nM
Cc1cnccc1-c1cccc2c(CCCOc3cc(C)c(Cl)c(C)c3)c(C)n(CCC(=O)O)c12 [Example 72, 3-(3-(3-(4-chloro-3,5-dimethylphenoxy)propyl)-2-methyl-7-(3-methylpyridin-4-yl)-1H-indol-1-yl)propanoic acid]	≤ 100 nM
Cc1cc(OCCCc2c(C)n(CCC(=O)O)c3c(-c4cccn4C)cccc23)cc(C)c1Cl [Example 73, 3-(3-(3-(4-chloro-3,5-dimethylphenoxy)propyl)-2-methyl-7-(1-methyl-1H-pyrrol-2-yl)-1H-indol-1-yl)propanoic acid]	≤ 100 nM
Cc1cc(OCCCc2c(C)n(CCC(=O)O)c3c(-c4cccnc4C)cccc23)cc(C)c1Cl [Example 75, 3-(3-(3-(4-chloro-3,5-dimethylphenoxy)propyl)-2-methyl-7-(2-methylpyridin-3-yl)-1H-indol-1-yl)propanoic acid]	≤ 100 nM
CCn1nc(C)c(-c2cccc3c(CCCOc4cc(C)c(Cl)c(C)c4)c(C)n(CCC(=O)O)c23)c1C [Example 77, 3-(3-(3-(4-chloro-3,5-dimethylphenoxy)propyl)-7-(1-ethyl-3,5-dimethyl-1H-pyrazol-4-yl)-2-methyl-1H-indol-1-yl)propanoic acid]	≤ 100 nM
Cc1cc(OCCCc2c(C)n(CCC(=O)O)c3c(-c4c(C)nn(CCN5CCOCC5)c4C)cccc23)cc(C)c1Cl [Example 79, 3-(3-(3-(4-chloro-3,5-dimethylphenoxy)propyl)-7-(3,5-dimethyl-1-(2-morpholinoethyl)-1H-pyrazol-4-yl)-2-methyl-1H-indol-1-yl)propanoic acid]	≤ 100 nM
Cc1cc(OCCCc2c(C)n(CCC(=O)O)c3c(-c4c(C)nn(CCN5CCCC5)c4C)cccc23)cc(C)c1Cl [Example 80, 3-(3-(3-(4-chloro-3,5-dimethylphenoxy)propyl)-7-(3,5-dimethyl-1-(2-(pyrrolidin-1-yl)ethyl)-1H-pyrazol-4-yl)-2-methyl-1H-indol-1-yl)propanoic acid]	≤ 100 nM
Cc1cc(OCCCc2c(C)n(CCC(=O)NS(C)(=O)=O)c3c(-c4ccnn4C)cccc23)cc(C)c1Cl [Example 81, 3-(3-(3-(4-chloro-3,5-dimethylphenoxy)propyl)-2-methyl-7-(1-methyl-1H-pyrazol-5-yl)-1H-indol-1-yl)-N-(methylsulfonyl)propanamide]	≤ 100 nM
Cc1ccncc1-c1cccc2c(CCCOc3cc(C)c(Cl)c(C)c3)c(C)n(CCC(=O)NS(C)(=O)=O)c12 [Example 82, 3-(3-(3-(4-chloro-3,5-dimethylphenoxy)propyl)-2-methyl-7-(4-methylpyridin-3-yl)-1H-indol-1-yl)-N-(methylsulfonyl)propanamide]	≤ 100 nM
Cc1cc(OCCCc2c(C)n(CCC(=O)NS(C)(=O)=O)c3c(-c4cccn4C)cccc23)cc(C)c1Cl [Example 84, 3-(3-(3-(4-chloro-3,5-dimethylphenoxy)propyl)-2-methyl-7-(1-methyl-1H-pyrrol-2-yl)-1H-indol-1-yl)-N-(methylsulfonyl)propanamide]	≤ 100 nM
Cc1cc(OCCCc2c(C)n(CCC(=O)NS(C)(=O)=O)c3c(-c4c(C)nn(C)c4C)cccc23)cc(C)c1Cl [Example 85, 3-(3-(3-(4-chloro-3,5-dimethylphenoxy)propyl)-2-methyl-7-(1,3,5-trimethyl-1H-pyrazol-4-yl)-1H-indol-1-yl)-N-(methylsulfonyl)propanamide]	≤ 100 nM
CCn1nc(C)c(-c2cccc3c(CCCOc4cc(C)c(Cl)c(C)c4)c(C)n(CCC(=O)NS(C)(=O)=O)c23)c1C [Example 86, 3-(3-(3-(4-chloro-3,5-dimethylphenoxy)propyl)-7-(1-ethyl-3,5-dimethyl-1H-pyrazol-4-yl)-2-methyl-1H-indol-1-yl)-N-(methylsulfonyl)propanamide]	≤ 100 nM
CCn1nc(C)c(-c2cccc3c(CCCOc4cc(C)c(Cl)c(C)c4)c(C)n(CCC(=O)NS(=O)(=O)c4ccccc4)c23)c1C [Example 87, 3-(3-(3-(4-chloro-3,5-dimethylphenoxy)propyl)-7-(1-ethyl-3,5-dimethyl-1H-pyrazol-4-yl)-2-methyl-1H-indol-1-yl)-N-(phenylsulfonyl)propanamide]	≤ 100 nM

Continued, values first:

Ki	SMILES
≤ 100 nM	Cc1cc(OCCCc2c(C)n(CCC(=O)NS(=O)(=O)Cc3ccccc3)c3c(-c4c(C)nn(C)c4C)cccc23)cc(C)c1Cl [Example 88, N-(benzylsulfonyl)-3-(3-(3-(4-chloro-3,5-dimethylphenoxy)propyl)-2-methyl-7-(1,3,5-trimethyl-1H-pyrazol-4-yl)-1H-indol-1-yl)propanamide]
≤ 100 nM	Cc1cc(OCCCc2c(C)n(CCC(=O)NS(=O)(=O)c3ccc4ccccc4c3)c3c(-c4c(C)nn(C)c4C)cccc23)cc(C)c1Cl [Example 89, 3-(3-(3-(4-chloro-3,5-dimethylphenoxy)propyl)-2-methyl-7-(1,3,5-trimethyl-1H-pyrazol-4-yl)-1H-indol-1-yl)-N-(naphthalen-2-ylsulfonyl)propanamide]
≤ 100 nM	Cc1cc(OCCCc2c(C)n(CCC(=O)NS(=O)(=O)c3ccc(Oc4ccccc4)cc3)c3c(-c4c(C)nn(C)c4C)cccc23)cc(C)c1Cl [Example 90, 3-(3-(3-(4-chloro-3,5-dimethylphenoxy)propyl)-2-methyl-7-(1,3,5-trimethyl-1H-pyrazol-4-yl)-1H-indol-1-yl)-N-((4-phenoxyphenyl)sulfonyl)propanamide]
≤ 100 nM	Cc1cc(OCCCc2c(C)n(CCC(=O)NS(=O)(=O)c3ccccc3[N+](=O)[O-])c3c(-c4c(C)nn(C)c4C)cccc23)cc(C)c1Cl [Example 91, 3-(3-(3-(4-chloro-3,5-dimethylphenoxy)propyl)-2-methyl-7-(1,3,5-trimethyl-1H-pyrazol-4-yl)-1H-indol-1-yl)-N-((2-nitrophenyl)sulfonyl)propanamide]
≤ 100 nM	Cc1cc(OCCCc2c(C)n(CCC(=O)NS(=O)(=O)c3cccc([N+](=O)[O-])c3)c3c(-c4c(C)nn(C)c4C)cccc23)cc(C)c1Cl [Example 92, 3-(3-(3-(4-chloro-3,5-dimethylphenoxy)propyl)-2-methyl-7-(1,3,5-trimethyl-1H-pyrazol-4-yl)-1H-indol-1-yl)-N-((3-nitrophenyl)sulfonyl)propanamide]
≤ 100 nM	Cc1cc(OCCCc2c(C)n(CCC(=O)NS(=O)(=O)c3ccc([N+](=O)[O-])cc3)c3c(-c4c(C)nn(C)c4C)cccc23)cc(C)c1Cl [Example 93, 3-(3-(3-(4-chloro-3,5-dimethylphenoxy)propyl)-2-methyl-7-(1,3,5-trimethyl-1H-pyrazol-4-yl)-1H-indol-1-yl)-N-((4-nitrophenyl)sulfonyl)propanamide]
≤ 100 nM	Cc1cc(OCCCc2c(C)n(CCC(=O)NS(=O)(=O)c3ccccn3)c3c(-c4c(C)nn(C)c4C)cccc23)cc(C)c1Cl [Example 94, 3-(3-(3-(4-chloro-3,5-dimethylphenoxy)propyl)-2-methyl-7-(1,3,5-trimethyl-1H-pyrazol-4-yl)-1H-indol-1-yl)-N-(pyridin-2-ylsulfonyl)propanamide]
≤ 100 nM	Cc1cc(OCCCc2c(C)n(CCC(=O)NS(=O)(=O)c3cccnc3)c3c(-c4c(C)nn(C)c4C)cccc23)cc(C)c1Cl [Example 95, 3-(3-(3-(4-chloro-3,5-dimethylphenoxy)propyl)-2-methyl-7-(1,3,5-trimethyl-1H-pyrazol-4-yl)-1H-indol-1-yl)-N-(pyridin-3-ylsulfonyl)propanamide]
≤ 100 nM	Cc1cc(OCCCc2c(C)n(CCC(=O)NS(=O)(=O)c3ccncc3)c3c(-c4c(C)nn(C)c4C)cccc23)cc(C)c1Cl [Example 96, 3-(3-(3-(4-chloro-3,5-dimethylphenoxy)propyl)-2-methyl-7-(1,3,5-trimethyl-1H-pyrazol-4-yl)-1H-indol-1-yl)-N-(pyridin-4-ylsulfonyl)propanamide]
1000 to 9990 nM	Cc1cc(OCCCc2c(C)n(Cc3ccccc3C(=O)O)c3c(-c4c(C)n[nH]c4C)cccc23)cc(C)c1Cl [Example 97, 2-((3-(3-(4-chloro-3,5-dimethylphenoxy)propyl)-7-(3,5-dimethyl-1H-pyrazol-4-yl)-2-methyl-1H-indol-1-yl)methyl)benzoic acid]
≤ 100 nM	Cc1cc(OCCCc2c(C)n(Cc3ccc(C(=O)O)cc3)c3c(-c4c(C)n[nH]c4C)cccc23)cc(C)c1Cl [Example 98, 4-((3-(3-(4-chloro-3,5-dimethylphenoxy)propyl)-7-(3,5-dimethyl-1H-pyrazol-4-yl)-2-methyl-1H-indol-1-yl)methyl)benzoic acid]
≤ 100 nM	Cc1cc(OCCCc2c(C)n(Cc3cccc(C(=O)O)c3)c3c(-c4c(C)nn(C)c4C)c(Cl)ccc23)cc(C)c1Cl [Example 102, 3-((6-chloro-3-(3-(4-chloro-3,5-dimethylphenoxy)propyl)-2-methyl-7-(1,3,5-trimethyl-1H-pyrazol-4-yl)-1H-indol-1-yl)methyl)benzoic acid]
≤ 100 nM	Cc1cc(OCCCc2c(C)n(Cc3ccc(CC(=O)O)cc3)c3c(-c4c(C)nn(C)c4C)c(Cl)ccc23)cc(C)c1Cl [Example 103, 2-(4-((6-chloro-3-(3-(4-chloro-3,5-dimethylphenoxy)propyl)-2-methyl-7-(1,3,5-trimethyl-1H-pyrazol-4-yl)-1H-indol-1-yl)methyl)phenyl)acetic acid]
